The results in this text go back to patent publication US11634447B2 (priority 2012, dated 2023).

In this assay the test system is bacterial strain LF82 binding to the glycoprotein BSA-(Mannose)3. Put plainly: Bacterial Binding Assay (BBA). As to conditions: read-out: Bacterial Binding Assay IC50, LF82/Luciferase strain binding to BSA-(Man)3 coated plates, luminescence. Format: cell-based, Escherichia coli. The gist of the method: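 Inhibition of LF82/luciferase E. coli adhesion is read as luminescence after washing off unbound cells. Compound and bacteria (10^7 per well) are co-incubated 40-75 min at room temperature on wells coated with 0.5-2 μg/mL BSA-(Man)3, with BSA-only wells as background; IC50 values derived.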
Regarding `OC[C@H]1O[C@H](C#Cc2ccc3c4ccc(C#C[C@H]5O[C@H](CO)[C@@H](O)[C@H](O)[C@@H]5O)cc4n(C4CCOCC4)c3c2)[C@@H](O)[C@@H](O)[C@@H]1O` [Compound 184, (2R,3S,4R,5S,6R)-2-(hydroxymethyl)-6-[2-[9-tetrahydropyran-4-yl-7-[2-[(2R,3S,4R,5S,6R)-3,4,5-trihydroxy-6-(hydroxymethyl)tetrahydropyran-2-yl]ethynyl]carbazol-2-yl]ethynyl]tetrahydropyran-3,4,5-triol], the IC50 turned out to be 0.83 nM.
For the compound `CC(C)(C)OC(=O)N1CCC(n2c3cc(C#C[C@H]4O[C@H](CO)[C@@H](O)[C@H](O)[C@@H]4O)ccc3c3ccc(C#C[C@H]4O[C@H](CO)[C@@H](O)[C@H](O)[C@@H]4O)cc32)CC1` [Compound 185, tert-butyl 4-[2,7-bis[2-[(2R,3S,4R,5S,6R)-3,4,5-trihydroxy-6-(hydroxymethyl)tetrahydropyran-2-yl]ethynyl]carbazol-9-yl]piperidine-1-carboxylate], the IC50 came out at 1.1 nM.
The value for `O=C1CC[C@@H](C(=O)c2c(C#C[C@H]3O[C@H](CO)[C@@H](O)[C@H](O)[C@@H]3O)ccc3c2C2(CCNCC2)c2cc(C#C[C@H]4O[C@H](CO)[C@@H](O)[C@H](O)[C@@H]4O)ccc2-3)N1` [Compound 244, (5S)-5-[2,7-bis[2-[(2R,3S,4R,5S,6R)-3,4,5-trihydroxy-6-(hydroxymethyl)tetrahydropyran-2-yl]ethynyl]spiro[fluorene-9,4piperidine]-1carbonyl]pyrrolidin-2-one] was 0.24 nM.
With `OCCn1c2cc(C#C[C@H]3O[C@H](CO)[C@@H](O)[C@H](O)[C@@H]3O)ccc2c2ccc(C#C[C@H]3O[C@H](CO)[C@@H](O)[C@H](O)[C@@H]3O)cc21` [Compound 182, (2R,3 S,4R,5S,6R)-2-[2-[9-(2-Hydroxyethyl)-7-[2-[(2R,3 S,4R,5S,6R)-3,4,5-trihydroxy-6-(hydroxymethyl)tetrahydropyran-2-yl]ethynyl]carbazol-2-yl]ethynyl]-6-(hydroxymethyl)tetrahydropyran-3,4,5-triol], the IC50 was 1.4 nM.
On to `OC[C@H]1O[C@H](c2cc3ccc(C#C[C@H]4O[C@H](CO)[C@@H](O)[C@H](O)[C@@H]4O)cc3[nH]2)[C@@H](O)[C@@H](O)[C@@H]1O` [Compound 146, (2R,3 S,4R,5S,6R)-2-(hydroxymethyl)-6-[2-[2-[(2R,3 S,4R,5S,6R)-3,4,5-trihydroxy-6-(hydroxymethyl)tetrahydropyran-2-yl]-1H-indol-6-yl]ethynyl]tetrahydropyran-3,4,5-triol], for which the IC50 turned out to be 165 nM.
Take `Cc1cc(C#C[C@H]2O[C@H](CO)[C@@H](O)[C@H](O)[C@@H]2O)c(C)cc1C#C[C@H]1O[C@H](CO)[C@@H](O)[C@H](O)[C@@H]1O` [Compound 97, (2R,3S,4R,5S,6R)-2-[2-[2,5-dimethy1-4-[2-[(2R,3S,4R,5S,6R)-3,4,5-trihydroxy-6-(hydroxymethyl)tetrahydropyran-2-yl]ethynyl]phenyl]ethynyl]-6-(hydroxymethyl)tetrahydropyran-3,4,5-triol]: the IC50 was 24 nM.
As for `O=C(O)Cn1c2cc(C#C[C@H]3O[C@H](CO)[C@@H](O)[C@H](O)[C@@H]3O)ccc2c2ccc(C#C[C@H]3O[C@H](CO)[C@@H](O)[C@H](O)[C@@H]3O)cc21` [Compound 176, 2-[2,7-Bis[2-[(2R,3S,4R,5S,6R)-3,4,5-trihydroxy-6-(hydroxymethyl)tetrahydropyran-2-yl]ethynyl]carbazol-9-yl]acetic acid], the IC50 was 10 nM.
For `CN1CCN(C2c3cc(C#C[C@H]4O[C@H](CO)[C@@H](O)[C@H](O)[C@@H]4O)ccc3-c3ccc(C#C[C@H]4O[C@H](CO)[C@@H](O)[C@H](O)[C@@H]4O)cc32)CC1` [Compound 198, (2R,3S,4R,5S,6R)-2-(hydroxymethyl)-6-[2-[9-(4-methylpiperazin-1-yl)-7-[2-[(2R,3S,4R,5S,6R)-3,4,5-trihydroxy-6-(hydroxymethyl)tetrahydropyran-2-yl]ethynyl]-9H-fluoren-2-yl]ethynyl]tetrahydropyran-3,4,5-triol], the IC50 is 24 nM.
For `COc1cc(-c2ccc([C@H]3O[C@H](CO)[C@@H](O)[C@H](O)[C@@H]3O)cc2)ccc1[C@H]1O[C@H](CO)[C@@H](O)[C@H](O)[C@@H]1O` [Compound 151] the value was 185 nM.
As to `OC[C@H]1O[C@H](C#Cc2ccc3c(c2)C2(CCCCO2)c2cc(C#C[C@H]4O[C@H](CO)[C@@H](O)[C@H](O)[C@@H]4O)ccc2-3)[C@@H](O)[C@@H](O)[C@@H]1O` (stereo partly drawn) [Compound 199], the IC50 was 0.21 nM.
Consider `OC[C@H]1O[C@H](C#Cc2ccc3c(c2)CCc2cc(C#C[C@H]4O[C@H](CO)[C@@H](O)[C@H](O)[C@@H]4O)ccc2-3)[C@@H](O)[C@@H](O)[C@@H]1O` [Compound 117, (2R,3S,4R,5S,6R)-2-(hydroxymethyl)-6-[2-[7-[2-[(2R,3S,4R,5S,6R)-3,4,5-trihydroxy-6-(hydroxymethyl)tetrahydropyran-2-yl]ethynyl]-9,10-dihydrophenanthren-2-yl]ethynyl]tetrahydropyran-3,4,5-triol], for which the IC50 turned out to be 23 nM.
The value for `O=C(c1c(C#C[C@H]2O[C@H](CO)[C@@H](O)[C@H](O)[C@@H]2O)ccc2c1C1(CCNCC1)c1cc(C#C[C@H]3O[C@H](CO)[C@@H](O)[C@H](O)[C@@H]3O)ccc1-2)[C@H]1CCCO1` [Compound 233, [2,7-bis[2-[(2R,3S,4R,5S,6R)-3,4,5-trihydroxy-6-(hydroxymethyl)tetrahydropyran-2-yl]ethynyl]spiro[fluorene-9,4piperidine]-1yl]-[(2R)-tetrahydrofuran-2-yl]methanone] was 0.05 nM; that for `OCCc1cc(C#C[C@H]2O[C@H](CO)[C@@H](O)[C@H](O)[C@@H]2O)ccc1C#C[C@H]1O[C@H](CO)[C@@H](O)[C@H](O)[C@@H]1O` [Compound 94, (2R,3S,4R,5S,6R)-2-[2-[3-(2-hydroxyethyl)-4-[2-[(2R,3S,4R,5S,6R)-3,4,5-trihydroxy-6-(hydroxymethyl)tetrahydropyran-2-yl]ethynyl]phenyl]ethynyl]-6-(hydroxymethyl)tetrahydropyran-3,4,5-triol] was 20 nM; that for `OCc1cc(C#C[C@H]2O[C@H](CO)[C@@H](O)[C@H](O)[C@@H]2O)c(CO)cc1C#C[C@H]1O[C@H](CO)[C@@H](O)[C@H](O)[C@@H]1O` [Compound 85, (2R,3S,4R,5S,6R)-2-[2-[2,5-bis(hydroxymethyl)-4-[2-[(2R,3S,4R,5S,6R)-3,4,5-trihydroxy-6-(hydroxymethyl)tetrahydropyran-2-yl]ethynyl]phenyl]ethynyl]-6-(hydroxymethyl)tetrahydropyran-3,4,5-triol] was 160 nM.
`CO[C@H](C)C(=O)c1c(C#C[C@H]2O[C@H](CO)[C@@H](O)[C@H](O)[C@@H]2O)ccc2c1C1(CCNCC1)c1cc(C#C[C@H]3O[C@H](CO)[C@@H](O)[C@H](O)[C@@H]3O)ccc1-2` [Compound 229, (2R)-1-[2,7-bis[2-[(2R,3S,4R,5S,6R)-3,4,5-trihydroxy-6-(hydroxymethyl)tetrahydropyran-2-yl]ethynyl]spiro[fluorene-9,4piperidine]-1yl]-2-methoxy-propan-1-one]: the IC50 was 0.35 nM.
For `CC(C)Oc1cc(C#C[C@H]2O[C@H](CO)[C@@H](O)[C@H](O)[C@@H]2O)ccc1C#C[C@H]1O[C@H](CO)[C@@H](O)[C@H](O)[C@@H]1O` [Compound 83, (2R,3S,4R,5S,6R)-2-(hydroxymethyl)-6-[2-[3-isopropoxy-4-[2-[(2R,3S,4R,5S,6R)-3,4,5-trihydroxy-6-(hydroxymethyl)tetrahydropyran-2-yl]ethynyl]phenyl]ethynyl]tetrahydropyran-3,4,5-triol], the IC50 came to 3.8 nM.
For `CCC1(O)c2cc(C#C[C@H]3O[C@H](CO)[C@@H](O)[C@H](O)[C@@H]3O)ccc2-c2ccc(C#C[C@H]3O[C@H](CO)[C@@H](O)[C@H](O)[C@@H]3O)cc21` [Compound 166, (2R,3S,4R,5S,6R)-2-[2-[9-ethyl-9-hydroxy-7-[2-[(2R,3S,4R,5S,6R)-3,4,5-trihydroxy-6-(hydroxymethyl)tetrahydropyran-2-yl]ethynyl]fluoren-2-yl]ethynyl]-6-(hydroxymethyl)tetrahydropyran-3,4,5-triol], the IC50 came out at 3 nM.
As for `Cc1cc([C@H]2O[C@H](CO)[C@@H](O)[C@H](O)[C@@H]2O)ccc1-c1ccc([C@H]2O[C@H](CO)[C@@H](O)[C@H](O)[C@@H]2O)c(C)c1` [Compound 149], the IC50 is 27 nM.
For `OC[C@H]1O[C@H](C#Cc2ccc3c(c2)sc2cc(C#C[C@H]4O[C@H](CO)[C@@H](O)[C@H](O)[C@@H]4O)ccc23)[C@@H](O)[C@@H](O)[C@@H]1O` [Compound 109, (2R,3S,4R,5S,6R)-2-(hydroxymethyl)-6-[2-[7-[2-[(2R,3S,4R,5S,6R)-3,4,5-trihydroxy-6-(hydroxymethyl)tetrahydropyran-2-yl]ethynyl]dibenzothiophen-3-yl]ethynyl]tetrahydropyran-3,4,5-triol] the value was 20 nM.
As to `OC[C@H]1O[C@H](C#Cc2ccc(C#C[C@H]3O[C@H](CO)[C@@H](O)[C@H](O)[C@@H]3O)c(OCc3ccccc3)c2)[C@@H](O)[C@@H](O)[C@@H]1O` [Compound 80, (2R,3S,4R,5S,6R)-2-[2-[3-benzyloxy-4-[2-[(2R,3S,4R,5S,6R)-3,4,5-trihydroxy-6-(hydroxymethyl)tetrahydropyran-2-yl]ethynyl]phenyl]ethynyl]-6-(hydroxymethyl)tetrahydropyran-3,4,5-triol], the IC50 worked out at 11 nM.
For `CC1(O)c2cc(C#C[C@H]3O[C@H](CO)[C@@H](O)[C@H](O)[C@@H]3O)ccc2-c2ccc(C#C[C@H]3O[C@H](CO)[C@@H](O)[C@H](O)[C@@H]3O)cc21` [Compound 115, (2R,3S,4R,5S,6R)-2-(hydroxymethyl)-6-[2-[9-hydroxy-9-methyl-7-[2-[(2R,3S,4R,5S,6R)-3,4,5-trihydroxy-6-(hydroxymethyl)tetrahydropyran-2-yl]ethynyl]fluoren-2-yl]ethynyl]tetrahydropyran-3,4,5-triol], the IC50 worked out at 3.9 nM.
